Measured values reported in ChEMBL document CHEMBL5512616, “pH regulators and their inhibitors in tumor microenvironment” (Eur J Med Chem, 2024).
Values joined by “and” are separate entries in the source; they are usually repeats but may differ in a detail not shown here. Identical values can stand only once.

Tests used:
[1] = biological target: T1, Carbonic anhydrase 2 (Homo sapiens, UniProt P00918)
[2] = biological target: T2, Sodium/hydrogen exchanger 1 (Homo sapiens, UniProt P19634); type: cell-based, Platelet
T2 sequence (P19634 whole entry): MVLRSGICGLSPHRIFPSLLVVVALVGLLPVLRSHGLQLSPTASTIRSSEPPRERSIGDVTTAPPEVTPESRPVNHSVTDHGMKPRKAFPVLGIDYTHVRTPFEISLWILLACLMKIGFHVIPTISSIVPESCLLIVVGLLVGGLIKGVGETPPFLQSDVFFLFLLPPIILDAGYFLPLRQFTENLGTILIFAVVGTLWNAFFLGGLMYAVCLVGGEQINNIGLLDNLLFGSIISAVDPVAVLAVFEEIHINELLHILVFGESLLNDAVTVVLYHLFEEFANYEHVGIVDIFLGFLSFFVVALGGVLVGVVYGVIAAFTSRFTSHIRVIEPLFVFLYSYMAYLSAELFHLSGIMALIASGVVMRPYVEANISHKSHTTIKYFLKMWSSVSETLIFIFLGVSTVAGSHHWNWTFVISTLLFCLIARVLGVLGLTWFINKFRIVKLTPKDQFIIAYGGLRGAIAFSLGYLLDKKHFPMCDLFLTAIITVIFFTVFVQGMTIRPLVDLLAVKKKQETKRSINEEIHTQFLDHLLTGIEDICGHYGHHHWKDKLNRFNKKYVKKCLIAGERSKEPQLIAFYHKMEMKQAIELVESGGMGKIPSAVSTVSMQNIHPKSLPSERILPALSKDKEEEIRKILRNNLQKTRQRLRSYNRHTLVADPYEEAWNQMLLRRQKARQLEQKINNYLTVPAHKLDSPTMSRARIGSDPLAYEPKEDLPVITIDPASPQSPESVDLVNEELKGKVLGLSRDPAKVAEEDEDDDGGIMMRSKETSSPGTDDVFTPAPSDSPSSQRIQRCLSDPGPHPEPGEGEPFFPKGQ

[3] = system: Raji; assay: cells; conditions: Homo sapiens, 96 h
[4] = biological target: T3, Monocarboxylate transporter 1 (Homo sapiens, UniProt P53985)
T3 sequence (P53985 whole entry): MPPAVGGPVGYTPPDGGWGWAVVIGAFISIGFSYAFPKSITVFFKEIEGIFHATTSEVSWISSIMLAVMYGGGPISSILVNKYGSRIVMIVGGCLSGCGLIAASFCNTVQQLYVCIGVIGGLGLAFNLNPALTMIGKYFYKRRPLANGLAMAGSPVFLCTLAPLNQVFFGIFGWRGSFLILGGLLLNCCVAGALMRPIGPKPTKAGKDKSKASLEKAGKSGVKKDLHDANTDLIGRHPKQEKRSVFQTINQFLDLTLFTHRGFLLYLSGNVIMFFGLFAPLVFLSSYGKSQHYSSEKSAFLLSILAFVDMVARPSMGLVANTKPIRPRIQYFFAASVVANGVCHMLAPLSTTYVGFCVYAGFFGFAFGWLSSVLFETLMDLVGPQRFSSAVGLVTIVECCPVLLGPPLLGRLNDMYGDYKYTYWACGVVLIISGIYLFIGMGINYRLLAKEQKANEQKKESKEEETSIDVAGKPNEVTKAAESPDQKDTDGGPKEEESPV

[5] = biological target: T4, Monocarboxylate transporter 4 (Homo sapiens, UniProt O15427)
T4 sequence (O15427 whole entry): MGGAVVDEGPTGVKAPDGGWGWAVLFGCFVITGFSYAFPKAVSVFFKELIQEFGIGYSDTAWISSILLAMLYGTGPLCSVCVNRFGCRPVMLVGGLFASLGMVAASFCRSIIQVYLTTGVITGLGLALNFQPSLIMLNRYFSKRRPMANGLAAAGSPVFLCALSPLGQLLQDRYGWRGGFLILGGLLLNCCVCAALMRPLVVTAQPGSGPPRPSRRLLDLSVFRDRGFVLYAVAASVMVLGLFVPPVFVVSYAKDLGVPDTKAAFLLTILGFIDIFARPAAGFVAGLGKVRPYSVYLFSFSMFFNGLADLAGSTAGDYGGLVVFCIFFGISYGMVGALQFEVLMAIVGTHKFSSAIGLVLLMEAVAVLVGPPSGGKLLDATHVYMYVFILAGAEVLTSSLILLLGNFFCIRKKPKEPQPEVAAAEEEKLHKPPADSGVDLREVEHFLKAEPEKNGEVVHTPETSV

[6] = biological target: T2, Sodium/hydrogen exchanger 1
[7] = biological target: T5, Monocarboxylate transporter 1 (Rattus norvegicus, UniProt P53987)
T5 sequence (P53987 whole entry): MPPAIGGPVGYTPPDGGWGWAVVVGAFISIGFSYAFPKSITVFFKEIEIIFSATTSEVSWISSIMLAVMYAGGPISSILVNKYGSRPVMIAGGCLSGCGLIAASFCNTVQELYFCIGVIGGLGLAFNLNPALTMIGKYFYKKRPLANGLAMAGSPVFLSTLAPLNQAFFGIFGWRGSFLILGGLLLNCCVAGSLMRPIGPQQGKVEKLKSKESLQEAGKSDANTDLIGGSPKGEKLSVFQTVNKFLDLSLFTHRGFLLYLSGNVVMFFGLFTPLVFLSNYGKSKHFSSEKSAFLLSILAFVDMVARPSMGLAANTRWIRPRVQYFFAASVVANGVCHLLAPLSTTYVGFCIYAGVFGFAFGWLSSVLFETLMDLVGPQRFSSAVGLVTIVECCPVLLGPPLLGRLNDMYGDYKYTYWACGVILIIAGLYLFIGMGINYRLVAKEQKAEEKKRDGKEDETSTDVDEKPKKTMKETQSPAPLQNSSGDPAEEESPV

[8] = biological target: T3, Monocarboxylate transporter 1; remark: listed apart in the source
[9] = biological target: Carbonic anhydrase 9 (Homo sapiens, UniProt Q16790)
[10] = biological target: T1, Carbonic anhydrase 2; remark: listed apart in the source
[11] = biological target: T3, Monocarboxylate transporter 1; remark: listed apart in the source
[12] = biological target: T1, Carbonic anhydrase 2; remark: listed apart in the source
[13] = biological target: T2, Sodium/hydrogen exchanger 1; remark: listed apart in the source

COc1ccc(CSc2nnc(COc3ccc4c(C)cc(=O)oc4c3)o2)cc1
Ki [1]: > 10000 nM

Cc1cc(S(C)(=O)=O)c(S(C)(=O)=O)cc1C(=O)NC(=N)N [RIMEPORIDE]
IC50 [2]: 113 nM

CC(C)c1cc(=O)c2c(OCCCO)cc(OCc3cccc4ccccc34)cc2o1
EC50 [3]: ≤ 100 nM

CC(C)c1ccc(C(=O)NC(=N)N)cc1S(C)(=O)=O [CARIPORIDE]
IC50 [2]: 800 nM and 200 nM

O=C(Oc1ccc2c(-c3ccccc3)cc(=O)oc2c1)c1ccccc1
Ki [1]: > 10000 nM

CCOC(=O)N1CCC(=C2c3ccc(Cl)cc3CCc3cccnc32)CC1 [LORATADINE]
IC50 [4]: ~100000 nM | IC50 [5]: > 300000 nM

COc1ccc(CN2CCN(CCOc3ccc(C(=O)N=C(N)N)cc3[N+](=O)[O-])CC2)c(OC)c1OC
IC50 [6]: 104 nM

Cc1ccc(-c2cc(C)c(C(=O)N=C(N)N)cc2S(C)(=O)=O)cc1
IC50 [2]: 25 nM

O=C(CN1C(=O)CSC1=O)c1cc2ccccc2oc1=O
Ki [1]: > 100000 nM

N#C/C(=C\c1cn(-c2ccccc2C(=O)O)c2ccccc12)C(=O)O
IC50 [7]: > 1000 nM

N=C(N)NC(=O)c1nc(Cl)c(N2CCCCCC2)nc1N [N,N-HEXAMETHYLENEAMILORIDE]
IC50 [2]: 3300 nM

Cn1c(=O)n(Cc2nnc(N)[nH]2)c(=O)c2ccccc21
IC50 [6]: 5800 nM

COc1ccc(CN2CCN(Cc3ccc(C(=O)N=C(N)N)cc3NC(=O)c3ccc(C(F)(F)F)cc3)CC2)c(OC)c1OC
IC50 [6]: 3530 nM

CCN(CC)c1ccc(/C=C(\C#N)C(=O)O)cc1
IC50 [7]: 66 nM

Cc1c[nH]c(=O)n(CC(=O)N=C(N)N)c1=O
IC50 [6]: 155 nM

Cc1cc(C(C)C)c(S(C)(=O)=O)cc1C(=O)N=C(N)N
IC50 [2]: 2 nM

CC(C)c1cc(=O)c2c(OCc3ccccc3CO)cc(OCc3ccnc4ccccc34)cc2o1
EC50 [3]: ≤ 100 nM

CN(Cc1ccccc1)c1ccc2cc(C(=O)O)c(=O)oc2c1
IC50 [8]: 59 nM

NS(=O)(=O)c1ccc(CN/C=C/C(=O)/C=C/c2cc3ccccc3oc2=O)cc1
Ki [9]: 8.9 nM | Ki [10]: 44 nM

O=C(CCc1ccc(O)cc1)c1c(O)cc(O)cc1O [PHLORETIN]
IC50 [11]: 2570 nM

N#Cc1cc2ccc(O)cc2oc1=O
Ki [1]: > 200000 nM

CC(C)c1c(C(=O)Nc2ccccc2)c(-c2ccccc2)c(-c2ccc(F)cc2)n1CC[C@@H](O)C[C@@H](O)CC(=O)O [ATORVASTATIN CALCIUM]
IC50 [4]: > 210000 nM | IC50 [5]: ~138000 nM

CC(C)c1cc(=O)c2c(OCc3ccccc3CO)cc(OCc3ncccc3C(F)(F)F)cc2o1
EC50 [3]: ≤ 100 nM

NS(=O)(=O)c1ccc(NCC(=O)N/N=C2\C(=O)N(Cc3ccccc3)c3ccccc32)cc1
Ki [12]: 204 nM

Cn1c(C(=O)N=C(N)N)cc2ccccc21
IC50 [6]: 1000 nM

CC(C)N1C(=O)C(C)(C)Oc2cc(C(=O)N=C(N)N)ccc21
IC50 [6]: 200 nM

N=C(N)NC(=O)[C@H]1C[C@@H]1c1ccccc1
IC50 [6]: 500 nM

O=c1c(O)c(-c2ccc(O)cc2O)oc2cc(O)cc(O)c12 [MORIN]
IC50 [11]: 6210 nM

Cc1nc(C(=O)N=C(N)N)c(N)nc1N1CCCOCC1
IC50 [13]: 85 nM

O=c1ccc2cc(-n3cc(CNc4ccc(Br)cc4)nn3)ccc2o1
Ki [1]: > 50000 nM
